Measured values published in the supplement of paper PMC8671470.

How the values were obtained:
Conditions in all cases: 72 h
BV-173 = system: BV-173
How it was run: (§1)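 The IC50 was read from log-logistic dose–response fits. Fifteen myeloid leukaemia lines were exposed for 72 h at 37 °C with 5% CO2 to five tenfold doses from 1 to 10,000 nM in duplicate. ATP luminescence, normalised to vehicle and to a 10 µM positive control, was fitted with four parameters.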

HEL = system: HEL
How it was run: as §1

HL-60 [1] = system: HL-60
How it was run: as §1

K-562 [2] = system: K-562
How it was run: as §1

KCL-22 [3] = system: KCL-22
How it was run: as §1

KG-1 [4] = system: KG-1
How it was run: as §1

KU-812 [5] = system: KU-812
How it was run: as §1

LAMA-84 [6] = system: LAMA-84
How it was run: as §1

ML-2 [7] = system: ML-2
How it was run: as §1

MOLM-13 [8] = system: MOLM-13
How it was run: as §1

MV4-11 [9] = system: MV4-11
How it was run: as §1

Mono-Mac-6 = system: Mono-Mac-6
How it was run: as §1

NOMO-1 [10] = system: NOMO-1
How it was run: as §1

SHI-1 [11] = system: SHI-1
How it was run: as §1

THP-1 [12] = system: THP-1
How it was run: as §1

HL-60 [13] = test: cell viability (% survival relative to DMSO control); higher = less cytotoxic
How it was run: (§2)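 For each screen, HL-60 cells in RPMI 1640 with 10% FBS carried either DMSO or 100 nM of one of three metabolic inhibitors while the full library was applied at five tenfold concentrations, 1–10,000 nM, in duplicate. Plates were 384-well and were kept 72 h at 37 °C, 5% CO2. Viability, measured by CellTiter-Glo, was normalised to wells with DMSO and with 10 μM proteasome inhibitor. Where area under the curve appears, it was fitted by four-parameter log-logistic models in drc and PharmacoGx.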

K-562 [14] = test: cell viability (% survival relative to DMSO control, bortezomib = 0%); higher = less cytotoxic
How it was run: (§3)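 After 72 h at 37 °C with 5% CO2, cell viability in 384-well plates was measured by CellTiter-Glo luminescence. The plates held compounds pre-printed at 1, 10, 100, 1000 or 10000 nM in duplicate, and cells from 10 AML and 5 CML lines seeded at densities titrated to linear growth. Percent survival is the duplicate mean, normalised to vehicle as 100% and a 10 µM positive control as 0%.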

KCL-22 [15] = test: as above
How it was run: as §3

KG-1 [16] = test: as above
How it was run: as §3

KU-812 [17] = test: as above
How it was run: as §3

LAMA-84 [18] = test: as above
How it was run: as §3

ML-2 [19] = test: as above
How it was run: as §3

MOLM-13 [20] = test: as above
How it was run: as §3

MV4-11 [21] = test: as above
How it was run: as §3

NOMO-1 [22] = test: as above
How it was run: as §3

SHI-1 [23] = test: as above
How it was run: as §3

THP-1 [24] = test: as above
How it was run: as §3

HL-60 [25] = test: area under dose-response curve (viability, 1 nM-10 uM) (fraction (0-1)); higher = more sensitive
How it was run: as §2

CN(C)C(=O)n1nnnc1Cc1ccc(-c2ccccc2)cc1
Conditions	IC50 (cell viability) [nM]
BV-173	422
HEL	2410
HL-60 [1]	3630
K-562 [2]	1880
KCL-22 [3]	2920
KG-1 [4]	1170
KU-812 [5]	1890
LAMA-84 [6]	2450
ML-2 [7]	1500
MOLM-13 [8]	3380
MV4-11 [9]	1770
Mono-Mac-6	2480
NOMO-1 [10]	4430
SHI-1 [11]	3740
THP-1 [12]	1740

cell viability [%], HL-60 [13]
Conditions	0.001 µM	0.01 µM	0.1 µM	1 µM	10 µM
co-treatment: AZD3965 100 nM	91.3	99.6	103	105	6.18
co-treatment: DMSO vehicle	97.5	99.54	101	101.1	6.81
co-treatment: GSK2194069 100 nM	101	96.8	104	109	6.62
co-treatment: pictilisib 100 nM	96.2	93.4	100	104	5

Conditions	area under dose-response curve, co-treatment: AZD3965 100 nM	area under dose-response curve, co-treatment: DMSO vehicle	area under dose-response curve, co-treatment: GSK2194069 100 nM	area under dose-response curve, co-treatment: pictilisib 100 nM	cell viability, 1 nM [%]	cell viability, 10 nM [%]	cell viability, 100 nM [%]	cell viability, 1000 nM [%]	cell viability, 10000 nM [%]
HL-60 [25]	0.113	0.116	0.108	0.116	–	–	–	–	–
K-562 [14]	–	–	–	–	100	111	112	78.1	4.59
KCL-22 [15]	–	–	–	–	94.6	109	101	95	0.732
KG-1 [16]	–	–	–	–	93.7	108	104	60.6	8.52
KU-812 [17]	–	–	–	–	101	101	96.5	77.9	3.07
LAMA-84 [18]	–	–	–	–	83	109	103	85.5	3.4
ML-2 [19]	–	–	–	–	101	112	114	69.2	3.07
MOLM-13 [20]	–	–	–	–	99	122	115	104	0.746
MV4-11 [21]	–	–	–	–	98.3	114	89.2	76.4	0.0147
NOMO-1 [22]	–	–	–	–	105	99.4	96.7	86.9	26.5
SHI-1 [23]	–	–	–	–	97.5	116	125	112	1.4
THP-1 [24]	–	–	–	–	103	112	102	67.6	35
